Measurements reported in patent US20240174727A1, “LONG-ACTING NATRIURETIC PEPTIDES AND USES THEREOF” (Eli Lilly and Company, priority 2022, published 2024).
Where two headings read alike, the source gives them in different places. Numbered stars: 1 amine (or outer) side, 2 acyl side, 3 side chain; on linkers, the order of the positions; unused ones are H or OH. Bridge positions count the residues as written; N and C are the ends. Square brackets hold non-standard residues; d marks the D form. Peptide text beside a SMILES is read from it. * marks the point of attachment. PEG24 = NCCOCCOCCOCCOCCOCCOCCOCCOCCOCCOCCOCCOCCOCCOCCOCCOCCOCCOCCOCCOCCOCCOCCOCCOCCC(=O)O; C20 diacid = O=C(O)CCCCCCCCCCCCCCCCCCC(=O)*; γGlu = O=C(O)[C@H](CCC(=O)[*:2])N[*:1]; 4Pal = N[C@@H](Cc1ccncc1)C(=O)O; Dap = NC[C@H](N)C(=O)O; CH2 = C([*:1])[*:2]; βAla = NCCC(=O)O

Biological target: T1, human NPRA (Homo sapiens, UniProt P16066)
T1 construct: Full-Length cDNA Cloning and Generation of Cell Lines Overexpressing Natriuretic Peptide Receptors (NPRs); expressed in transfected cells; host or cells: Jump-in T-Rex HEK293 cells, pJTI R4 CMV-TO MCS pA vector, tetracycline induction
T1 sequence (P16066 33-1061): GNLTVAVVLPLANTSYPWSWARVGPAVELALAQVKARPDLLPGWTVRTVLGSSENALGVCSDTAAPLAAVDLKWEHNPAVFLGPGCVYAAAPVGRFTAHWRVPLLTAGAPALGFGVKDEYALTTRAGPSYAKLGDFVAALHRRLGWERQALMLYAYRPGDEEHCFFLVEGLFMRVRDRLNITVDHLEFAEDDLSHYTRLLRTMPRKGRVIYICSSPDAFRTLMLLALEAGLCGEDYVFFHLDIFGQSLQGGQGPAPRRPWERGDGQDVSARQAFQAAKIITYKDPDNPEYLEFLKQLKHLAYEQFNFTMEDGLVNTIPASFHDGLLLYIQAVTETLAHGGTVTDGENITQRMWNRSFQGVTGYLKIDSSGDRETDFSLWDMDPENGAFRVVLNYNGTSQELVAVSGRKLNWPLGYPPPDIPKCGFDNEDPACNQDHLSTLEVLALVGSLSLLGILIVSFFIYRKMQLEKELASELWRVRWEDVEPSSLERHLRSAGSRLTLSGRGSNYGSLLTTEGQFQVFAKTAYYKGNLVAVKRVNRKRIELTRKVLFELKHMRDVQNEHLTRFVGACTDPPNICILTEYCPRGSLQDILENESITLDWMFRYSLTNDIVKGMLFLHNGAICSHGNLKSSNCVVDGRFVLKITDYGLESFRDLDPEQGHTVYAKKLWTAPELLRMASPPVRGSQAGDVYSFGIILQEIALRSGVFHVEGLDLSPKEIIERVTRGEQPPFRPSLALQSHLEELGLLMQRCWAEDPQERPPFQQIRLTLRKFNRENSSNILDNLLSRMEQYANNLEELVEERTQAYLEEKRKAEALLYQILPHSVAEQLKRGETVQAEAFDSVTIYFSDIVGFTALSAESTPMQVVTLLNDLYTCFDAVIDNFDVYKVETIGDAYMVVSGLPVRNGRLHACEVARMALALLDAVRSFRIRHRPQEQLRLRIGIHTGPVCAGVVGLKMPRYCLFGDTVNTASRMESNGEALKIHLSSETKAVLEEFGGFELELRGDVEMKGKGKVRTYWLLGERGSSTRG
Assay: Human NPRA cGMP activity assay (HTRF) in HEK293 cells overexpressing NPRA
Assay type: cell-based
In short: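 Tetracycline-induced (300 ng/mL, 48 h) T-Rex HEK293 cells expressing NPRA, 4000 cells/well, treated 40 min at room temperature with polypeptide (8 points, 10 μM to 1 pM) in HBSS/HEPES buffer with 0.5 mM IBMX, pH 7.4. cGMP by HTRF, normalised to 100 nM amidated rat ANP and buffer.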

[1] = assay buffer with 0.1% BSA, read-out: cGMP Assay (EC50, pM) w/BSA hNPRA
[2] = assay buffer with 0.1% casein, read-out: cGMP Assay (EC50, pM) w/Casein hNPRA
[3] = cGMP Assay (EC50, pM) w/BSA hNPRA, assay buffer with 0.1% BSA
[4] = cGMP Assay (EC50, pM) w/Casein hNPRA, assay buffer with 0.1% casein

| Compound | EC50 [1] | EC50 [2] | EC50 [3] | EC50 [4] |
| --- | --- | --- | --- | --- |
| {C20 diacid-γGlu}-EKEKEKGEKPRSSCFG[Dap]RIDRIGHQSGLGCPSFRHGSPSSGAPPPS-NH2 (linker 14-30 via CH2) [Example 137] | 155000 pM | 769 pM | – | – |
| CC[C@H](C)[C@@H]1NC(=O)[C@H](CCCNC(=N)N)NC(=O)[C@H](CC(=O)O)NC(=O)[C@H]([C@@H](C)CC)NC(=O)[C@H](CCCNC(=N)N)NC(=O)CNC(=O)CNC(=O)[C@H](Cc2ccccc2)NC(=O)[C@@H](NC(=O)[C@H](CO)NC(=O)[C@H](CO)NC(=O)[C@H](CCCNC(=N)N)NC(=O)[C@H](CCCNC(=N)N)NC(=O)[C@H](Cc2ccncc2)NC(=O)[C@H](CO)NC(=O)COCCOCCNC(=O)COCCOCCNC(=O)COCCOCCNC(=O)COCCOCCNC(=O)COCCOCCNC(=O)COCCOCCNC(=O)CNC(=O)[C@H](CCCCN)NC(=O)[C@H](CCC(=O)O)NC(=O)[C@H](CCCCN)NC(=O)[C@H](CCC(=O)O)NC(=O)[C@H](CCCCN)NC(=O)[C@H](CCC(=O)O)NC(=O)CC[C@H](NC(=O)CCCCCCCCCCCCCCCCCCC(=O)O)C(=O)O)CSCSC[C@@H](C(=O)N2CCC[C@H]2C(=O)N[C@@H](CO)C(=O)N[C@@H](Cc2ccccc2)C(=O)N[C@@H](CCCNC(=N)N)C(=O)N[C@@H](Cc2c[nH]cn2)C(=O)NCC(=O)NCC(=O)N[C@@H](CCCCN)C(=O)N[C@@H](CO)C(=O)N[C@@H](CO)C(=O)NCC(=O)N[C@@H](C)C(=O)N2CCC[C@H]2C(=O)N2CCC[C@H]2C(=O)N2CCC[C@H]2C(=O)N[C@@H](CO)C(N)=O)NC(=O)CNC(=O)[C@H](CC(C)C)NC(=O)CNC(=O)[C@H](CO)NC(=O)[C@H](CCC(N)=O)NC(=O)[C@H](Cc2c[nH]cn2)NC(=O)CNC1=O [Example 86] | 25200 pM | 1020 pM | – | – |
| {C20 diacid-γGlu}-EKEKEKGEKPRSSCFG[Dap]RIDRIGHYSGLGCPSFRHGSPSSGAPPPS-NH2 (linker 14-30 via CH2) [Example 136] | 100000 pM | 1380 pM | – | – |
| CC[C@H](C)[C@@H]1NC(=O)[C@H](CCCNC(=N)N)NC(=O)[C@H](CC(=O)O)NC(=O)[C@H]([C@@H](C)CC)NC(=O)[C@H](CCCNC(=N)N)NC(=O)[C@H](CCCCN)NC(=O)CNC(=O)[C@H](Cc2ccccc2)NC(=O)[C@@H](NC(=O)[C@H](CO)NC(=O)[C@H](CO)NC(=O)[C@H](CCCNC(=N)N)NC(=O)CCNC(=O)[C@H](CCCCN)NC(=O)[C@H](CCC(=O)O)NC(=O)CCOCCOCCOCCOCCOCCOCCOCCOCCOCCOCCOCCOCCOCCOCCOCCOCCOCCOCCOCCOCCOCCOCCOCCOCCNC(=O)CNC(=O)[C@H](CCCCN)NC(=O)[C@H](CCC(=O)O)NC(=O)[C@H](CCCCN)NC(=O)[C@H](CCC(=O)O)NC(=O)[C@H](CCCCN)NC(=O)[C@H](CCC(=O)O)NC(=O)CC[C@H](NC(=O)CCCCCCCCCCCCCCCCCCC(=O)O)C(=O)O)CSCSC[C@@H](C(=O)N2CCC[C@H]2C(=O)N[C@@H](CO)C(=O)N[C@@H](Cc2ccccc2)C(=O)N[C@@H](CCCNC(=N)N)C(=O)N[C@@H](Cc2c[nH]cn2)C(=O)NCC(=O)NCC(=O)N2CCC[C@H]2C(N)=O)NC(=O)CNC(=O)[C@H](CC(C)C)NC(=O)CNC(=O)[C@H](CO)NC(=O)[C@H](CCC(N)=O)NC(=O)[C@H](Cc2c[nH]cn2)NC(=O)CNC1=O [Example 130] ({C20 diacid-γGlu}-EKEKEKG[PEG24]EK[βAla]RSSCFGKRIDRIGHQSGLGCPSFRHGGP-NH2; linker 15-31 via CH2) | 1270 pM | 669 pM | – | – |
| CC[C@H](C)[C@@H]1NC(=O)[C@H](CCCNC(=N)N)NC(=O)[C@H](CC(=O)O)NC(=O)[C@H]([C@@H](C)CC)NC(=O)[C@H](CCCNC(=N)N)NC(=O)CNC(=O)CNC(=O)[C@H](Cc2ccccc2)NC(=O)[C@@H](NC(=O)[C@H](CO)NC(=O)[C@H](CO)NC(=O)[C@H](CCCNC(=N)N)NC(=O)CCNC(=O)[C@H](CCCCN)NC(=O)[C@H](CCC(=O)O)NC(=O)CNC(=O)[C@H](CCCCN)NC(=O)[C@H](CCC(=O)O)NC(=O)[C@H](CCCCN)NC(=O)[C@H](CCC(=O)O)NC(=O)[C@H](CCCCN)NC(=O)[C@H](CCC(=O)O)NC(=O)CC[C@H](NC(=O)CCCCCCCCCCCCCCCCCCC(=O)O)C(=O)O)CSCSC[C@@H](C(=O)N2CCC[C@H]2C(=O)N[C@@H](CO)C(=O)N[C@@H](Cc2ccccc2)C(=O)N[C@@H](CCCNC(=N)N)C(=O)N[C@@H](Cc2c[nH]cn2)C(=O)NCC(=O)NCC(=O)N2CCC[C@H]2C(=O)N[C@@H](CO)C(=O)N[C@@H](CO)C(=O)NCC(=O)N[C@@H](C)C(=O)N2CCC[C@H]2C(=O)N2CCC[C@H]2C(=O)N2CCC[C@H]2C(=O)N[C@@H](CO)C(N)=O)NC(=O)CNC(=O)[C@H](CC(C)C)NC(=O)CNC(=O)[C@H](CO)NC(=O)[C@H](Cc2ccc(O)cc2)NC(=O)[C@H](Cc2c[nH]cn2)NC(=O)CNC1=O [Example 56] | – | – | 145000 pM | – |
| CC[C@H](C)[C@@H]1NC(=O)[C@H](CCCNC(=N)N)NC(=O)[C@H](CC(=O)O)NC(=O)[C@H]([C@@H](C)CC)NC(=O)[C@H](CCCNC(=N)N)NC(=O)CNC(=O)CNC(=O)[C@H](Cc2ccccc2)NC(=O)[C@@H](NC(=O)[C@H](CO)NC(=O)[C@H](CO)NC(=O)[C@H](CCCNC(=N)N)NC(=O)CCNC(=O)[C@H](CCC(=O)O)NC(=O)[C@H](CCCCN)NC(=O)CNC(=O)[C@H](CCCCN)NC(=O)[C@H](CCC(=O)O)NC(=O)[C@H](CCCCN)NC(=O)[C@H](CCC(=O)O)NC(=O)[C@H](CCCCN)NC(=O)[C@H](CCC(=O)O)NC(=O)CC[C@H](NC(=O)CCCCCCCCCCCCCCCCCCC(=O)O)C(=O)O)CSCSC[C@@H](C(=O)N2CCC[C@H]2C(=O)N[C@@H](CO)C(=O)N[C@@H](Cc2ccccc2)C(=O)N[C@@H](CCCNC(=N)N)C(=O)N[C@@H](Cc2c[nH]cn2)C(=O)NCC(=O)NCC(=O)N2CCC[C@H]2C(=O)N[C@@H](CO)C(=O)N[C@@H](CO)C(=O)NCC(=O)N[C@@H](C)C(=O)N2CCC[C@H]2C(=O)N2CCC[C@H]2C(=O)N2CCC[C@H]2C(=O)N[C@@H](CO)C(N)=O)NC(=O)CNC(=O)[C@H](CC(C)C)NC(=O)CNC(=O)[C@H](CO)NC(=O)[C@H](Cc2ccc(O)cc2)NC(=O)[C@H](Cc2c[nH]cn2)NC(=O)CNC1=O [Example 58] | – | – | 104000 pM | 1220 pM |
| {C20 diacid-γGlu}-EKEKEKG[PEG24]S[4Pal]RRSSCFGGRIDRIGHQSGLGCPSFRHGGPSSGAPPPS-NH2 (linker 15-31 via CH2) [Example 61] | – | – | – | 912 pM |
